This note sets out measurements from EP2970215B1, “PYRROLIDINE DERIVATIVES, PHARMACEUTICAL COMPOSITIONS CONTAINING THEM, AND THEIR USE IN THERAPY” (AbbVie Deutschland GmbH & Co. KG, priority 2013, dated 2014).

Bounds are passed on as bounds.

For the first experiment, the target named is T1, human GlyT1c transporter (Homo sapiens, UniProt P48067).
T1 construct: expressed in transfected cells; host or cells: CHO cells (recombinant; line hGlyT1c_5_CHO is named for the uptake assay)
T1 sequence (P48067 1-706): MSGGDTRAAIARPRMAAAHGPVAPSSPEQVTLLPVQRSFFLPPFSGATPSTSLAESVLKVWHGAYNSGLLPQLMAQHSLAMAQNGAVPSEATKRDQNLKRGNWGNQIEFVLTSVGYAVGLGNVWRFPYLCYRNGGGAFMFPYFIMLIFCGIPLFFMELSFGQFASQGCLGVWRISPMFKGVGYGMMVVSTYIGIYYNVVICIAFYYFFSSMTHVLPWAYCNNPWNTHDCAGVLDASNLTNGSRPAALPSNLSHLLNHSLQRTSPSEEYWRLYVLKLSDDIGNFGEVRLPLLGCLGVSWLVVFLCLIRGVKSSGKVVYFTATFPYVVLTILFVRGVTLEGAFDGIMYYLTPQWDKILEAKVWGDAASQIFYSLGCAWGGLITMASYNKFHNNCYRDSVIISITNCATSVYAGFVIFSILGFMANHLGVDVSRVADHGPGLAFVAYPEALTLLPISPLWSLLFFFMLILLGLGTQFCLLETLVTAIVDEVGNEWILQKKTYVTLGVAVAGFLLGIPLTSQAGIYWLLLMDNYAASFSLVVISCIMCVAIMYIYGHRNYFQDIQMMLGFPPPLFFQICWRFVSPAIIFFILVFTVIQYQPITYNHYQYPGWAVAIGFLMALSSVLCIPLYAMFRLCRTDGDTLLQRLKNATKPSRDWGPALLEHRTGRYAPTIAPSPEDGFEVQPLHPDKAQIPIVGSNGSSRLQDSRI
The experiment is described as follows: Radioligand binding assay using recombinant CHO cell membranes expressing human GlyT1. To be noted: radioligand binding to human GlyT1c transporter-expressing membranes. The text has this: 2. Radioligand binding assays using recombinant CHO cell membranes expressing human GlyT1: […]
For the molecule `Cc1nn(C)cc1S(=O)(=O)N1C[C@@H](NC(=O)c2cccc(C(F)(F)F)c2Cl)[C@H](c2ccccc2)C1` (relative stereo) [Example 42, 2-chloro-N-{trans-1-[(1,3-dimethyl-1H-pyrazol-4-yl)sulfonyl]-4-phenylpyrrolidin-3-yl}-3-(trifluoromethyl)benzamide], the Ki – broadly, a measure of affinity in units of concentration, obtained from inhibition or displacement – is no more than 10000 nM.

Turning to `Cn1cnc(S(=O)(=O)N2C[C@@H](Nc3cccc(F)c3)[C@H](c3cccc(F)c3)C2)c1` (relative stereo) [Example 186, trans-N,4-bis(3-fluorophenyl)-1-[(1-methyl-1H-imidazol-4-yl)sulfonyl]pyrrolidin-3-amine], the Ki is no more than 1000 nM.

With `Cn1cnc(S(=O)(=O)N2C[C@@H](Nc3cccc(C(F)(F)F)n3)[C@H](c3ccccc3F)C2)c1` (relative stereo) [Example 203, N-{trans-4-(2-fluorophenyl)-1-[(1-methyl-1H-imidazol-4-yl)sulfonyl]pyrrolidin-3-yl}-6-(trifluoromethyl)pyridin-2-amine], the Ki is no more than 10000 nM.

Regarding `COCCNC[C@@H]1CN(S(=O)(=O)c2cn(C)cn2)C[C@H]1c1ccc(F)cc1` (relative stereo) [Example 593, N-({trans-4-(4-fluorophenyl)-1-[(1-methyl-1H-imidazol-4-yl)sulfonyl]pyrrolidin-3-yl}methyl)-2-methoxyethanamine], the Ki is no more than 10000 nM.

As to `CC(C)COc1cc(N[C@H]2CN(S(=O)(=O)c3cn(C)cn3)C[C@@H]2c2ccc(F)cc2)ncn1` [Example 718, N-{(3R,4S)-4-(4-fluorophenyl)-1-[(1-methyl-1H-imidazol-4-yl)sulfonyl]pyrrolidin-3-yl}-6-(2-methylpropoxy)pyrimidin-4-amine], the Ki was no more than 100 nM.

As for `CC(C)OCCNC(=O)[C@@H]1CN(S(=O)(=O)c2cn(C)cn2)C[C@H]1c1ccc(F)cc1` [Example 587, (3S,4R)-4-(4-fluorophenyl)-1-[(1-methyl-1H-imidazol-4-yl)sulfonyl]-N-[2-(propan-2-yloxy)ethyl]pyrrolidine-3-carboxamide], the Ki is no more than 10000 nM.

`Cn1cnc(S(=O)(=O)N2C[C@@H](Nc3ccc(F)cc3F)[C@H](c3ccccc3)C2)c1` (relative stereo) [Example 233, trans-N-(2,4-difluorophenyl)-1-[(1-methyl-1H-imidazol-4-yl)sulfonyl]-4-phenylpyrrolidin-3-amine]: the Ki was no more than 10000 nM.

`Cn1cnc(S(=O)(=O)N2C[C@@H](NC(=O)c3cc(Cl)cc(Cl)c3)[C@H](c3ccc(F)cc3)C2)c1` (relative stereo) [Example 65, 3,5-dichloro-N-{trans-4-(4-fluorophenyl)-1-[(1-methyl-1H-imidazol-4-yl)sulfonyl]pyrrolidin-3-yl}benzamide]: the Ki is no more than 1000 nM.

Take `Cn1cnc(S(=O)(=O)N2C[C@H](Nc3cccc(Cl)c3)[C@@H](c3ccc(F)cc3)C2)c1` [Example 328, (3R,4S)-N-(3-chlorophenyl)-4-(4-fluorophenyl)-1-[(1-methyl-1H-imidazol-4-yl)sulfonyl]pyrrolidin-3-amine]: the Ki was no more than 100 nM.

For `Cn1cnc(S(=O)(=O)N2C[C@@H](N3Cc4ccc(Cl)cc4C3=O)[C@H](c3ccccn3)C2)c1` (relative stereo) [Example 381, 6-chloro-2-[Trans-1-[(1-methyl-1H-imidazol-4-yl)sulfonyl]-4-(pyridin-2-yl)pyrrolidin-3-yl]-2,3-dihydro-1H-isoindol-1-one], the inhibitory constant (Ki) was no more than 10000 nM.

As to `Cn1cnc(S(=O)(=O)N2C[C@@H](C(=O)Nc3cc(C(F)(F)F)ccn3)[C@H](c3ccc(F)cc3)C2)c1` (relative stereo) [Example 369, Trans-4-(4-fluorophenyl)-1-[(1-methyl-1H-imidazol-4-yl)sulfonyl]-N-[4-(trifluoromethyl)pyridin-2-yl]pyrrolidine-3-carboxamide], the Ki is no more than 1000 nM.

Turning to `Cn1cnc(S(=O)(=O)N2C[C@@H]([C@@H]3CCCOC3)[C@H](Nc3ccc(F)c(Cl)c3)C2)c1` (mixture of isomers) [Example 789, Trans-N-(3-chloro-4-fluorophenyl)-1-[(1-methyl-1H-imidazol-4-yl)sulfonyl]-4-[(3S)-tetrahydro-2H-pyran-3-yl]pyrrolidin-3-amine], the Ki is no more than 1000 nM.

With `O=S(=O)(N1CCOCC1)N1CC(Nc2ccc(F)c(F)c2)C(c2ccccc2)C1` (centres unmarked) [Example 521, N-(3,4-difluorophenyl)-1-(morpholin-4-ylsulfonyl)-4-phenylpyrrolidin-3-amine], the Ki was no more than 10000 nM.

In the case of `Cn1cnc(S(=O)(=O)N2C[C@@H](C(=O)Nc3ccc(F)c(Cl)c3)[C@H](c3ccc(F)cc3)C2)c1` (relative stereo) [Example 275, trans-N-(3-chloro-4-fluorophenyl)-4-(4-fluorophenyl)-1-[(1-methyl-1H-imidazol-4-yl)sulfonyl]pyrrolidine-3-carboxamide], the Ki is no more than 1000 nM.

As to `Cn1cnc(S(=O)(=O)N2C[C@H](NC(=O)Nc3ccccc3Cl)[C@@H](c3ccc(F)cc3)C2)c1` [Example 694, 1-(2-chlorophenyl)-3-{(3R,4S)-4-(4-fluorophenyl)-1-[(1-methyl-1H-imidazol-4-yl)sulfonyl]pyrrolidin-3-yl}urea], the Ki was no more than 1000 nM.

`Cn1cnc(S(=O)(=O)N2C[C@@H](Nc3cc(F)cc(C#N)c3)[C@H](c3ccccc3)C2)c1` (relative stereo) [Example 78, 3-fluoro-5-({trans-1-[(1-methyl-1H-imidazol-4-yl)sulfonyl]-4-phenylpyrrolidin-3-yl}amino)benzonitrile]: the Ki is no more than 1000 nM.

As for `Cn1cnc(S(=O)(=O)N2C[C@@H](Nc3ccc4cnccc4c3)[C@H](c3ccccc3)C2)c1` (relative stereo) [Example 230, N-{trans-1-[(1-methyl-1H-imidazol-4-yl)sulfonyl]-4-phenylpyrrolidin-3-yl}isoquinolin-6-amine], the Ki is no more than 10000 nM.

For `CCCCCN(CCCCC)[C@@H]1CN(S(=O)(=O)c2cn(C)cn2)C[C@H]1c1ncccc1F` (relative stereo) [Example 764, Trans-4-(3-fluoropyridin-2-yl)-1-[(1-methyl-1H-imidazol-4-yl)sulfonyl]-N,N-dipentylpyrrolidin-3-amine], the Ki is no more than 1000 nM.

For the molecule `Cn1cnc(S(=O)(=O)N2C[C@H](NC(=O)C3(C(F)(F)F)CC3)[C@@H](c3ccc(F)cc3)C2)c1` [Example 375, N-{(3R,4S)-4-(4-fluorophenyl)-1-[(1-methyl-1H-imidazol-4-yl)sulfonyl]pyrrolidin-3-yl}-1-(trifluoromethyl)cyclopropanecarboxamide], the Ki was no less than 10000 nM.

Regarding `Cn1cnc(S(=O)(=O)N2C[C@H](Nc3ccc(F)cc3)[C@@H](c3ccc(F)cc3)C2)c1` [Example 330, (3R,4S)-N,4-bis(4-fluorophenyl)-1-[(1-methyl-1H-imidazol-4-yl)sulfonyl]pyrrolidin-3-amine], the Ki was no more than 100 nM.

Turning to `Cn1cnc(S(=O)(=O)N2C[C@H](Nc3cc(-c4cccc(F)c4)ncn3)[C@@H](c3ccc(F)cc3)C2)c1` [Example 727, 6-(3-fluorophenyl)-N-{(3R,4S)-4-(4-fluorophenyl)-1-[(1-methyl-1H-imidazol-4-yl)sulfonyl]pyrrolidin-3-yl}pyrimidin-4-amine], the Ki is no more than 10 nM.

As for `Cn1cnc(S(=O)(=O)N2C[C@H](NC(=O)Oc3ccccc3)[C@@H](c3ccc(F)cc3)C2)c1` [Example 693, phenyl {(3R,4S)-4-(4-fluorophenyl)-1-[(1-methyl-1H-imidazol-4-yl)sulfonyl]pyrrolidin-3-yl}carbamate], the Ki is no more than 10000 nM.

As to `Cn1cnc(S(=O)(=O)N2C[C@@H](Nc3cccc(C(F)(F)F)n3)[C@H](c3ccccc3)C2)c1` (relative stereo) [Example 210, N-{trans-1-[(1-methyl-1H-imidazol-4-yl)sulfonyl]-4-phenylpyrrolidin-3-yl}-6-(trifluoromethyl)pyridin-2-amine], the Ki was no more than 10000 nM.

For the molecule `COc1nc(N[C@H]2CN(S(=O)(=O)c3cn(C)cn3)C[C@@H]2c2ccccc2)cc(C(F)(F)F)n1` [Example 605, 2-methoxy-N-{(3R,4S)-1-[(1-methyl-1H-imidazol-4-yl)sulfonyl]-4-phenylpyrrolidin-3-yl} -6-(trifluoromethyl)pyrimidin-4-amine], the Ki is no more than 1000 nM.

Still in this experiment, the particulars now being: radioligand binding, recombinant CHO cell membranes expressing human GlyT1c.
`Cn1cnc(S(=O)(=O)N2C[C@@H](Nc3cccc(Cl)c3)[C@H](C3CCOC3)C2)c1` (relative stereo) [Example 829, trans-N-(3-chlorophenyl)-1-[(1-methyl-1H-imidazol-4-yl)sulfonyl]-4-(tetrahydrofuran-3-yl)pyrrolidin-3-amine]: the Ki was no more than 10000 nM.

`Cn1cnc(S(=O)(=O)N2C[C@@H](Nc3ccc(F)c(C(F)(F)F)c3)[C@H](C3CCCO3)C2)c1` (relative stereo) [Example 843, Trans-N-[4-fluoro-3-(trifluoromethyl)phenyl]-1-[(1-methyl-1H-imidazol-4-yl)sulfonyl]-4-(tetrahydrofuran-2-yl)pyrrolidin-3-amine]: the Ki is no more than 100 nM.
